Reference: patent US9315544B2, “Method of treating eosinophilia by administering an immunomodulating peptide” (National Tsing Hua University, priority 2012, dated 2016)

Columns and labels:
IL-17A/F = test: Cytokine ELISA of lung protein extract (IL-17A/F); format: in vivo, BALB/c mouse; conditions: eIN+mIT, mIT+eIN and eIN+mIT+eIN groups
Source text: FIG. 4 illustrates experimental design. All groups except control group were immunized with mite crude extract allergen on days 1 and 8, then mite crude extract allergen intratracheally on day 15 in all mite treated group, BALB/c mouse were divided into six groups (1) control group (PBS), (2) mites delivered intratracheally (mIT, mite on day 15) alone, (3) CMP intranasal (eIN, CMP on days 1 to 22) alone, (4) preventive-treatment group (eIN+mIT, CMP on days 1 to 14, mite on day 15) (5) therapy-treatment group (mIT+eIN, mite on day 15, CMP on days 15 to 22), and (6) preventive- and therapeutic-treatment group (eIN+mIT+eIN, CMP on days 1 to 22, mite on day 15).
FIG. 9 illustrates inhibitory effect of CMP on lung protein extract. Lung protein extracts from different groups of mouse were assayed for the indicated cytokines. Data represent one of three independent experiments. Levels of CCL-11, IL-5, IL-13 and IL-17A/F levels in lung protein extracts from mouse from treatment groups were measured by Enzyme-linked immunosorbent assay (ELISA). Each result was expressed as the mean±S.D., n=4. **, P<0.01, ***, P<0.001. […]
Levels of cytokines from lung protein extract were measured by ELISA. […] The microplates were read at 450 nm with an ELISA reader (Thermo Labsystems, Waltham, Mass., USA). […]

human CCL11 = test: CCL11 protein release from Beas-2B cells by ELISA; format: cell-based; conditions: Beas-2B cells, 24 h
Method: FIG. 2 illustrates CCL11 expression in CMP and ECP co-treated Beas-2B cells. Beas-2B cells were starved with serum free medium for 24 h, followed by stimulation with ECP (column 2). Cells were stimulated with PBS as negative control (column 1) and ECP in the absence of CMP (column 2) or presence of 1 μM (column 3), 2.5 μM (column 4), 5 μM (column 5), 10 μM (column 6) CMP at 37° C. for 24 h. CCL11 protein level was determined by ELISA kit employing CCL11 antibody. The data represented mean±SD (standard deviation) of at least three independent experiments. ***, p<0.001; **, p<0.01
FIG. 3 illustrates CCL11 expression in CMP and IL-4 co-treated Beas-2B cells. Beas-2B cells were starved with serum free medium for 24 h, followed by stimulation with PBS (column 1) or 10 ng/mL IL-4 (column 2-7). Cells were stimulated with 10 ng/mL IL-4 in the absence […] or presence of 1 μM (column 3), 2.5 μM (column 4), 5 μM (column 5) and 10 μM (column 6) CMP at 37° C. for 24 h. CCL11 protein level was determined by ELISA kit employing CCL11 antibody. The data represented mean±SD (standard deviation) of at least three independent experiments. ***, p<0.001 (Stimulation with IL-4 compared with PBS treated Beas-2B cells). *, p<0.05 (Stimulation with indicated concentrations of CMP compared with IL-4 treated Beas-2B cells).
CCL11 ELISA kit (R&D) is an in vitro enzyme-linked immunosorbent assay for quantitative determination of human CCL11 concentration in cell culture supernatants. This assay employed an antibody specific for human CCL11 coated on a 96-well plate. The wells were incubated with 50 μL standard or sample for 2.5 hours at room temperature. After washing with 1× wash solution five times, 200 μL of CCL11 conjugate were added into each wells for 1 h. After washing, 100 μL TMB One-Step Substrate Reagent were added into each wells at room temperature for 30 minutes. 50 μL of Stop Solution were added into each wells and read at 450 nm by spectrophotometer immediately. Limit of detection in the assay was 5 pg/mL.
To investigate whether CMP influenced ECP-mediated CCL11 expression, Beas-2B cells were separately stimulated with 5 μM ECP in the absence of CMP and in the presence of 1 μM, 2.5 μM, 5 μM and 10 μM CMP at 37° C. for 24 h.
To further investigate whether CMP influenced CCL11 production from other stimulation in Beas-2B cells, serum-deprived Beas-2B cells were stimulated with 10 ng/mL IL-4, a dominant cytokine regulating CCL11, alone or in the presence of CMP at concentrations 1, 2.5, 5 and 10 μM at 37° C. for 24 h.

NYRWRCKNQN (CMP)
IL-17A/F levels in lung protein extract compared with mIT group (IL-17A/F): much lower
release of CCL11 induced by IL-4, reduced to (human CCL11; 10 ng/mL IL-4 with 5 μM CMP): 48.1 pg/mL
release of CCL11 induced by IL-4, reduced to (human CCL11; 10 ng/mL IL-4 with 10 μM CMP): 30.2 pg/mL
CCL11 production induced by IL-4 (human CCL11; 10 ng/mL IL-4 with 1 or 2.5 μM CMP): did not reduce
CCL11 induced by ECP, reduced to (human CCL11; 5 μM ECP and 5 μM CMP): 7.55 pg/mL
CCL11 induced by ECP, reduced to (human CCL11; 5 μM ECP and 10 μM CMP): 8.94 pg/mL
ECP-mediated CCL11 production (human CCL11; 5 μM ECP and 1 or 2.5 μM CMP): did not reduce
